According to PubChem BioAssay (NCI):
“And” between values parts separate entries of the source, which are not always exact repeats. Identical values can stand only once.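 Dose response: 5 concentrations. Exposure: 48 h. Format: 96-well plates. Endpoint: linear interpolation; highest concentration if not reached. At the GI50, growth is halved. TGI: concentration producing complete growth inhibition.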

Assays:
Test in all cases: NCI-60 cell line screen, 48 h
SK-MEL-28 melanoma = system: SK-MEL-28 melanoma
U251 CNS = system: U251 CNS
NCI-H522 lung = system: NCI-H522 lung
DU-145 prostate = system: DU-145 prostate
SNB-75 CNS = system: SNB-75 CNS
HOP-92 NSCLC = system: HOP-92 NSCLC
HS 578T breast = system: HS 578T breast
LOX IMVI melanoma = system: LOX IMVI melanoma
K-562 leukemia = system: K-562 leukemia
MOLT-4 leukemia = system: MOLT-4 leukemia
NCI-H460 lung = system: NCI-H460 lung
786-0 renal = system: 786-0 renal
SK-MEL-2 melanoma = system: SK-MEL-2 melanoma
NCI-H226 lung = system: NCI-H226 lung
ACHN renal = system: ACHN renal
T-47D breast = system: T-47D breast
MDA-MB-435 = system: MDA-MB-435
EKVX NSCLC = system: EKVX NSCLC
SK-OV-3 ovarian = system: SK-OV-3 ovarian
HCC-2998 colon = system: HCC-2998 colon
M14 melanoma = system: M14 melanoma
CCRF-CEM leukemia = system: CCRF-CEM leukemia
OVCAR-4 ovarian = system: OVCAR-4 ovarian
SF-268 CNS = system: SF-268 CNS
RPMI-8226 leukemia = system: RPMI-8226 leukemia
A498 renal = system: A498 renal
MDA-MB-231 breast = system: MDA-MB-231 breast
MDA-N = system: MDA-N
TK-10 renal = system: TK-10 renal
COLO 205 colon = system: COLO 205 colon
PC-3 prostate = system: PC-3 prostate
SW-620 colon = system: SW-620 colon
UACC-257 melanoma = system: UACC-257 melanoma
IGROV1 ovarian = system: IGROV1 ovarian
SNB-19 CNS = system: SNB-19 CNS
UACC-62 melanoma = system: UACC-62 melanoma
HOP-62 NSCLC = system: HOP-62 NSCLC
NCI/ADR-RES ovarian = system: NCI/ADR-RES ovarian
OVCAR-8 ovarian = system: OVCAR-8 ovarian
KM12 colon = system: KM12 colon
HCT-116 colon = system: HCT-116 colon
SF-539 CNS = system: SF-539 CNS
SK-MEL-5 melanoma = system: SK-MEL-5 melanoma
MALME-3M melanoma = system: MALME-3M melanoma
SF-295 CNS = system: SF-295 CNS
SN12C renal = system: SN12C renal
HL-60(TB) leukemia = system: HL-60(TB) leukemia
HCT-15 colon = system: HCT-15 colon
OVCAR-5 ovarian = system: OVCAR-5 ovarian
BT-549 breast = system: BT-549 breast
A549 NSCLC = system: A549 NSCLC
SR leukemia = system: SR leukemia
MCF7 breast = system: MCF7 breast
UO-31 renal = system: UO-31 renal
HT29 colon = system: HT29 colon
RXF 393 renal = system: RXF 393 renal
NCI-H23 lung = system: NCI-H23 lung
CAKI-1 renal = system: CAKI-1 renal
OVCAR-3 ovarian = system: OVCAR-3 ovarian

Work on `CCCCCNC(=O)c1cc2cc(CCl)ccc2oc1=O` yielded a TGI (SK-MEL-28 melanoma) of over 100 µM, a TGI (U251 CNS) of 36.6 µM and a TGI (NCI-H522 lung) of 17.1 µM. The TGI (DU-145 prostate) was 5.95 µM, the TGI (SNB-75 CNS) was 13.1 µM and the TGI (HOP-92 NSCLC) was 3.71 µM. It also gave a TGI (HS 578T breast) of over 54.7 µM, a TGI (LOX IMVI melanoma) of over 72.8 µM and a TGI (K-562 leukemia) of over 100 µM. For the same molecule, the TGI (MOLT-4 leukemia) was over 100 µM, the TGI (NCI-H460 lung) was 3.3 µM and the TGI (786-0 renal) was 2.82 µM. It also gave a TGI (SK-MEL-2 melanoma) of 19.8 µM, a TGI (NCI-H226 lung) of 30.1 µM and a TGI (ACHN renal) of 4.52 µM. It also gave a TGI (T-47D breast) of 2.98 µM, a TGI (MDA-MB-435) of over 60.8 µM and a TGI (EKVX NSCLC) of 9.94 µM. It also gave a TGI (SK-OV-3 ovarian) of 10.3 µM, a TGI (HCC-2998 colon) of 18.9 µM and a TGI (M14 melanoma) of over 51.4 µM. It also gave a TGI (CCRF-CEM leukemia) of over 100 µM, a TGI (OVCAR-4 ovarian) of 26.6 µM and a TGI (SF-268 CNS) of 12.4 µM. For the same molecule, the TGI (RPMI-8226 leukemia) was over 100 µM, the TGI (A498 renal) was 3.98 µM and the TGI (MDA-MB-231 breast) was 3.72 µM. It also gave a TGI (MDA-N) of over 94.2 µM, a TGI (TK-10 renal) of 2.85 µM and a TGI (COLO 205 colon) of 2.79 µM. For the same molecule, the TGI (PC-3 prostate) was 2.81 µM, the TGI (SW-620 colon) was over 100 µM and the TGI (UACC-257 melanoma) was 6.56 µM. It also gave a TGI (IGROV1 ovarian) of 18.6 µM, a TGI (SNB-19 CNS) of over 69 µM and a TGI (UACC-62 melanoma) of 7.15 µM. For the same molecule, the TGI (HOP-62 NSCLC) was 14 µM, the TGI (NCI/ADR-RES ovarian) was over 66.8 µM and the TGI (OVCAR-8 ovarian) was over 100 µM. The TGI (KM12 colon) was over 44.5 µM, the TGI (HCT-116 colon) was over 38.5 µM and the TGI (SF-539 CNS) was 16.8 µM. For the same molecule, the TGI (SK-MEL-5 melanoma) was over 51.2 µM, the TGI (MALME-3M melanoma) was 7.5 µM and the TGI (SF-295 CNS) was 24.7 µM. For the same molecule, the TGI (SN12C renal) was 3.67 µM, the TGI (HL-60(TB) leukemia) was 10.5 µM and the TGI (HCT-15 colon) was 6.22 µM. The TGI (OVCAR-5 ovarian) was 7.99 µM, the TGI (BT-549 breast) was over 46.3 µM and the TGI (A549 NSCLC) was 14.1 µM. The TGI (SR leukemia) was over 100 µM, the TGI (MCF7 breast) was over 87.4 µM and the TGI (UO-31 renal) was 3.07 µM. It also gave a TGI (HT29 colon) of 9.58 µM, a TGI (RXF 393 renal) of 1.78 µM and a TGI (NCI-H23 lung) of 11.5 µM. The TGI (CAKI-1 renal) was 2.57 µM and the TGI (OVCAR-3 ovarian) was 26.6 µM.
In the case of `Nc1ccn(C2OC(CO)C(O)C2(F)F)c(=O)n1` (configuration not stated), the TGI (SK-MEL-28 melanoma) is reported as over 100 µM, the GI50 (U251 CNS) is reported as 0.0221 µM and the TGI (U251 CNS) is reported as over 100 µM. The GI50 (NCI-H522 lung) was 1.35 µM, the GI50 (DU-145 prostate) was 0.0274 µM and the GI50 (SNB-75 CNS) was 0.247 µM and 0.0258 µM and 0.0306 µM. It also gave a TGI (SNB-75 CNS) of 0.944 µM, a GI50 (HOP-92 NSCLC) of 0.223 µM and a GI50 (HS 578T breast) of over 100 µM. For the same molecule, the TGI (HS 578T breast) was over 100 µM, the GI50 (LOX IMVI melanoma) was 0.0285 µM and the TGI (LOX IMVI melanoma) was over 100 µM. It also gave a GI50 (K-562 leukemia) of 0.0824 µM, a GI50 (MOLT-4 leukemia) of 0.0441 µM and a GI50 (NCI-H460 lung) of 0.00651 µM. For the same molecule, the GI50 (786-0 renal) was 0.0039 µM, the TGI (SK-MEL-2 melanoma) was over 100 µM and the GI50 (NCI-H226 lung) was 0.146 µM and 0.095 µM. For the same molecule, the TGI (NCI-H226 lung) was over 100 µM, the GI50 (ACHN renal) was 0.0252 µM and 0.00379 µM and the TGI (ACHN renal) was 3.48 µM. The GI50 (T-47D breast) was 1.01 µM and 1.39 µM, the GI50 (MDA-MB-435) was 0.0189 µM and the TGI (MDA-MB-435) was over 100 µM. The TGI (EKVX NSCLC) was over 100 µM, the GI50 (SK-OV-3 ovarian) was 0.215 µM and 0.307 µM and the TGI (SK-OV-3 ovarian) was over 100 µM. For the same molecule, the GI50 (HCC-2998 colon) was 0.94 µM, the TGI (HCC-2998 colon) was over 100 µM and the GI50 (M14 melanoma) was 0.00639 µM. For the same molecule, the TGI (M14 melanoma) was 0.148 µM and 0.0249 µM, the GI50 (CCRF-CEM leukemia) was 0.0614 µM and 0.0268 µM and the GI50 (OVCAR-4 ovarian) was over 100 µM. It also gave a TGI (OVCAR-4 ovarian) of over 100 µM, a GI50 (SF-268 CNS) of 0.0378 µM and a GI50 (RPMI-8226 leukemia) of 0.561 µM. The TGI (RPMI-8226 leukemia) was over 100 µM, the GI50 (A498 renal) was 0.0548 µM and the GI50 (MDA-MB-231 breast) was 7.26 µM and 0.924 µM. For the same molecule, the TGI (MDA-MB-231 breast) was over 100 µM, the GI50 (MDA-N) was 0.0647 µM and the TGI (MDA-N) was over 100 µM. The GI50 (TK-10 renal) was over 100 µM, the TGI (TK-10 renal) was over 100 µM and the GI50 (COLO 205 colon) was 0.568 µM. For the same molecule, the TGI (COLO 205 colon) was over 100 µM, the TGI (PC-3 prostate) was over 100 µM and the GI50 (SW-620 colon) was 0.342 µM and 0.325 µM. It also gave a TGI (SW-620 colon) of over 100 µM, a TGI (UACC-257 melanoma) of over 100 µM and a GI50 (SNB-19 CNS) of 0.0131 µM. For the same molecule, the TGI (SNB-19 CNS) was 70.1 µM, the GI50 (UACC-62 melanoma) was 0.0383 µM and the GI50 (HOP-62 NSCLC) was 0.0255 µM. For the same molecule, the TGI (HOP-62 NSCLC) was 0.805 µM and 3.16 µM, the GI50 (NCI/ADR-RES ovarian) was 0.0144 µM and the GI50 (OVCAR-8 ovarian) was 0.0122 µM. It also gave a TGI (OVCAR-8 ovarian) of 1.02 µM, a GI50 (KM12 colon) of 2.84 µM and a TGI (KM12 colon) of over 100 µM. The GI50 (HCT-116 colon) was 0.00746 µM, the TGI (HCT-116 colon) was over 100 µM and the GI50 (SF-539 CNS) was 0.0167 µM. For the same molecule, the TGI (SF-539 CNS) was 0.553 µM and 0.0633 µM, the GI50 (SK-MEL-5 melanoma) was 0.0392 µM and the TGI (SK-MEL-5 melanoma) was over 100 µM. For the same molecule, the GI50 (MALME-3M melanoma) was 0.0883 µM, the GI50 (SF-295 CNS) was 0.0389 µM and the TGI (SF-295 CNS) was 0.0216 µM. The GI50 (SN12C renal) was 0.0391 µM, the TGI (SN12C renal) was 0.946 µM and 1.11 µM and the GI50 (HL-60(TB) leukemia) was 0.0286 µM. For the same molecule, the TGI (HL-60(TB) leukemia) was 0.22 µM, the GI50 (HCT-15 colon) was 2.2 µM and the TGI (HCT-15 colon) was over 100 µM. For the same molecule, the GI50 (OVCAR-5 ovarian) was 0.182 µM, the TGI (OVCAR-5 ovarian) was over 100 µM and the GI50 (BT-549 breast) was 0.0744 µM and 0.0178 µM. It also gave a TGI (BT-549 breast) of over 100 µM, a GI50 (A549 NSCLC) of 0.0158 µM and a TGI (A549 NSCLC) of over 100 µM. The GI50 (SR leukemia) was 0.0579 µM, the GI50 (MCF7 breast) was 0.00552 µM and the TGI (MCF7 breast) was over 100 µM. For the same molecule, the GI50 (UO-31 renal) was 0.0175 µM, the TGI (UO-31 renal) was 0.685 µM and 0.433 µM and 0.327 µM and the TGI (HT29 colon) was over 100 µM. It also gave a GI50 (RXF 393 renal) of 0.0363 µM, a GI50 (NCI-H23 lung) of 0.00788 µM and a GI50 (CAKI-1 renal) of 0.00925 µM. For the same molecule, the TGI (CAKI-1 renal) was 2.55 µM and 21.4 µM, the GI50 (OVCAR-3 ovarian) was 3.62 µM and the TGI (OVCAR-3 ovarian) was over 100 µM.
